Results as given in patent US20190292155A1, “THERAPEUTIC INHIBITORY COMPOUNDS” (LifeSci Pharmaceuticals, Inc., priority 2016, published 2019).

target: T1, human complement factor D (Homo sapiens, UniProt P00746); test: In vitro enzyme inhibition of human complement factor D (Z-Lys-SBzl/DTNB, A405); assay type: biochemical; conditions: not given
T1 construct: purchased R&D Systems 1824-SE
Method: The ability of the compounds disclosed herein to inhibit human complement factor D inhibitory activity was quantified according to the 12-step protocol provided below. • 1. Prepare assay buffer: 50 mM Tris/HCl, pH 7.5, 1 M NaCl. • 2. […] Then dilute the serial concentrations of Nafamostat Mesilate 20-fold in assay buffer. • 3. […] 0.5% DMSO was in each well finally. • 4. […] Add 10 μl diluted test compounds duplicated into the 96-well plate. […] 0.5% DMSO was in each well finally. • 6. Dilute 20 mM substrate Z-Lys-SBzl (Bachem, Cat# M-1300) to 200 μM in assay buffer with 200 μM DTNB (Sigma, Catalog# D8130). • 7. […] Add 40 μl diluted Complement Factor D in the 96-well plate. • 8. Positive control well contains Complement Factor D without test compound. Negative control well contains neither Complement Factor D nor test compound. Using assay buffer, bring the total volume of all controls to 50 al. • 9. Pre-incubate the plate for 5 min at room temperature. • 10. Add 50 μl of diluted substrate/DTNB mixture into each well. […] For kinetic reading: Immediately start measuring absorbance (A405 nm) continuously and record data every 30 sec for 60 min. • 12. Data analysis • Inhibition activity of compound was evaluated by IC50. IC50 was calculated according the dose-response curve of compound fitted using GraphPadPrism with “log(inhibitor)-response (variable slope)” equation. • % inhibition was calculated by using following equation:
[formula] • Mean(NC): The average value of the negative control wells' A405 nm values. • Mean(PC): The average value of the positive control wells' A405 nm values.

T1 sequence (P00746 26-253): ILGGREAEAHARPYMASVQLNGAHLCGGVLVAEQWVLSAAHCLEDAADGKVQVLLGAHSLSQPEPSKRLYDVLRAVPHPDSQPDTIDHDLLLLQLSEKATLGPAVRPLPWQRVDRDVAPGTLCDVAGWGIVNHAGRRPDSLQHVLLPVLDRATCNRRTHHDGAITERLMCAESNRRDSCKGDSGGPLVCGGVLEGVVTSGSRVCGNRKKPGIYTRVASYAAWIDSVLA

SMILES | IC50 [nM]
NC(=O)c1nn(CC(=O)N(CC(=O)NCc2cccc(Cl)c2F)C2CC2)c2ccc(Cl)cc12 [Example 80, 5-chloro-1-(2-((2-((3-chloro-2-fluorobenzyl)amino)-2-oxoethyl)(cyclopropyl)amino)-2-oxoethyl)-1H-indazole-3-carboxamide] | 100 to 1000

same assay, conditions: biochemical assay, substrate Z-Lys-SBzl; read-out: CFD IC50

SMILES | IC50 [nM]
CC(=O)c1nc(CC(=O)N(CC(=O)NCc2cccc(Cl)c2F)C2CC2)n2ccccc12 [Example 48, 2-(1-acetylimidazo[1,5-a]pyridin-3-yl)-N-(2-((3-chloro-2-fluorobenzyl)amino)-2-oxoethyl)-N-cyclopropylacetamide] | 100 to 1000
NC(=O)c1nn(CC(=O)N(CC(=O)NCc2ccc(Cl)c(Cl)c2)C2CC2)c2ccccc12 [Example 104, 1-(2-(cyclopropyl(2-((3,4-dichlorobenzyl)amino)-2-oxoethyl)amino)-2-oxoethyl)-1H-indazole-3-carboxamide] | 1000 to 10000
COC(=O)C(C)N(CC(=O)NCc1cccc(Cl)c1F)C(=O)Cn1nc(C(N)=O)c2ccccc21 (stereo not drawn) [Example 59, methyl 2-(2-(3-carbamoyl-1H-indazol-1-yl)-N-(2-((3-chloro-2-fluorobenzyl)amino)-2-oxoethyl)acetamido)propanoate] | 1000 to 10000
Cc1cccc(CNC(=O)CN(C(=O)Cn2nc(C(N)=O)c3ccccc32)C2CC2)c1F [Example 128, 1-(2-(cyclopropyl(2-((2-fluoro-3-methylbenzyl)amino)-2-oxoethyl)amino)-2-oxoethyl)-1H-indazole-3-carboxamide] | 100 to 1000
NC(=O)c1nn(CC(=O)N(CC(=O)NCc2cccc(Cl)c2C(F)(F)F)C2CC2)c2ccccc12 [Example 135, 1-(2-((2-((3-chloro-2-(trifluoromethyl)benzyl)amino)-2-oxoethyl)(cyclopropyl)amino)-2-oxoethyl)-1H-indazole-3-carboxamide] | 1000 to 10000
NC(=O)c1nn(CC(=O)N(CC(=O)NCc2cc(F)cc(Cl)c2)C2CC2)c2ccccc12 [Example 103, 1-(2-((2-((3-chloro-5-fluorobenzyl)amino)-2-oxoethyl)(cyclopropyl)amino)-2-oxoethyl)-1H-indazole-3-carboxamide] | 100 to 1000
NC(=O)c1nn(CC(=O)N(CC(=O)NCc2cc(Cl)cc3cn[nH]c23)C2CC2)c2ccccc12 [Example 109, 1-(2-((2-(((5-chloro-1H-indazol-7-yl)methyl)amino)-2-oxoethyl)(cyclopropyl)amino)-2-oxoethyl)-1H-indazole-3-carboxamide] | 1000 to 10000
NCCN(CC(=O)NCc1cccc(Cl)c1F)C(=O)Cn1nc(C(N)=O)c2ccccc21 [Example 31, 1-(2-((2-aminoethyl)(2-((3-chloro-2-fluorobenzyl)amino)-2-oxoethyl)amino)-2-oxoethyl)-1H-indazole-3-carboxamide] | 100 to 1000
NC(=O)c1nn(CC(=O)N(CC(=O)NCc2cccc(Cl)c2F)c2ccccc2)c2ccccc12 [Example 36, 1-(2-((2-((3-chloro-2-fluorobenzyl)amino)-2-oxoethyl)(phenyl)amino)-2-oxoethyl)-1H-indazole-3-carboxamide] | 1000 to 10000
C[C@@H](C(=O)NCc1cccc(Cl)c1F)N(C(=O)Cn1nc(C(N)=O)c2ccccc21)C1CC1 [Example 39, (S)-1-(2-((1-((3-chloro-2-fluorobenzyl)amino)-1-oxopropan-2-yl)(cyclopropyl)amino)-2-oxoethyl)-1H-indazole-3-carboxamide] | > 10000
CC(C(N)=O)N(CC(=O)NCc1cccc(Cl)c1F)C(=O)Cn1nc(C(N)=O)c2ccccc21 (stereo not drawn) [Example 62, 1-(2-((1-amino-1-oxopropan-2-yl)(2-((3-chloro-2-fluorobenzyl)amino)-2-oxoethyl)amino)-2-oxoethyl)-1H-indazole-3-carboxamide] | 1000 to 10000
NC(=O)c1nn(CC(=O)N(CC(=O)Nc2cccc(Cl)c2F)C2CC2)c2ccccc12 [Example 7, 1-(2-((2-((3-chloro-2-fluorophenyl)amino)-2-oxoethyl)(cyclopropyl)amino)-2-oxoethyl)-1H-indazole-3-carboxamide] | 100 to 1000
NC(=O)c1nn(CC(=O)N(CC(=O)NCc2cccc(Cl)c2F)C2CC2)c2cc(C(F)(F)F)ccc12 [Example 94, 1-(2-((2-((3-chloro-2-fluorobenzyl)amino)-2-oxoethyl)(cyclopropyl)amino)-2-oxoethyl)-6-(trifluoromethyl)-1H-indazole-3-carboxamide] | 100 to 1000
NC(=O)c1nn(CC(=O)N(CC(=O)NCc2cccc(Cl)c2F)C2CC2)cc1Br [Example 46, 4-bromo-1-(2-((2-((3-chloro-2-fluorobenzyl)amino)-2-oxoethyl)(cyclopropyl)amino)-2-oxoethyl)-1H-pyrazole-3-carboxamide] | 1000 to 10000
CCN(CC(=O)Nc1cccc(Cl)n1)C(=O)Cn1nc(C(N)=O)c2ccccc21 [Example 15, 1-(2-((2-((6-chloropyridin-2-yl)amino)-2-oxoethyl)(ethyl)amino)-2-oxoethyl)-1H-indazole-3-carboxamide] | 100 to 1000
NC(=O)c1nn(CC(=O)N(CC(=O)NCc2cccc(N)c2F)C2CC2)c2ccccc12 [Example 118, 1-(2-((2-((3-amino-2-fluorobenzyl)amino)-2-oxoethyl)(cyclopropyl)amino)-2-oxoethyl)-1H-indazole-3-carboxamide] | 1000 to 10000
NC(=O)c1nn(CC(=O)N(CC(=O)NCc2cccc(Cl)c2F)C2CC2)c2cccc(F)c12 [Example 97, 1-(2-((2-((3-chloro-2-fluorobenzyl)amino)-2-oxoethyl)(cyclopropyl)amino)-2-oxoethyl)-4-fluoro-1H-indazole-3-carboxamide] | 1000 to 10000
NC(=O)c1nn(CC(=O)N(CC(=O)Nc2cccc(Cl)n2)C2CNC2)c2ccccc12 [Example 22, 1-(2-(azetidin-3-yl(2-((6-chloropyridin-2-yl)amino)-2-oxoethyl)amino)-2-oxoethyl)-1H-indazole-3-carboxamide] | 1000 to 10000
NC(=O)c1nn(CC(=O)N(CC(=O)NCc2cc(Cl)c3cn[nH]c3c2)C2CC2)c2ccccc12 [Example 102, 1-(2-((2-(((4-chloro-1H-indazol-6-yl)methyl)amino)-2-oxoethyl)(cyclopropyl)amino)-2-oxoethyl)-1H-indazole-3-carboxamide] | 1000 to 10000
Cc1cc(Cl)cc(CNC(=O)CN(C(=O)Cn2nc(C(N)=O)c3ccccc32)C2CC2)c1 [Example 129, 1-(2-((2-((3-chloro-5-methylbenzyl)amino)-2-oxoethyl)(cyclopropyl)amino)-2-oxoethyl)-1H-indazole-3-carboxamide] | 1000 to 10000
CC(CC(=O)O)N(CC(=O)NCc1cccc(Cl)c1F)C(=O)Cn1nc(C(N)=O)c2ccccc21 (stereo not drawn) [Example 74, 3-(2-(3-carbamoyl-1H-indazol-1-yl)-N-(2-((3-chloro-2-fluorobenzyl)amino)-2-oxoethyl)acetamido)butanoic acid] | 1000 to 10000
NC(=O)c1nn(CC(=O)N(CC(=O)NCc2ccc(F)c(Cl)c2F)C2CC2)c2ccccc12 [Example 83, 1-(2-((2-((3-chloro-2,4-difluorobenzyl)amino)-2-oxoethyl)(cyclopropyl)amino)-2-oxoethyl)-1H-indazole-3-carboxamide] | 100 to 1000
NC(=O)c1nn(CC(=O)N(CC(=O)NCc2cccc(C(F)(F)F)c2F)C2CC2)c2ccccc12 [Example 136, 1-(2-(cyclopropyl(2-((2-fluoro-3-(trifluoromethyl)benzyl)amino)-2-oxoethyl)amino)-2-oxoethyl)-1H-indazole-3-carboxamide] | 1000 to 10000
